Experimental data taken from PubChem BioAssay (NCI).
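Compound exposure: 48 hours, 5 concentrations, 96-well plates. The concentration for full growth arrest is given as TGI.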

What was measured:
Test in all cases: growth of human tumour cells (NCI), 48 h
OVCAR-5 ovarian = system: OVCAR-5 ovarian
CCRF-CEM leukemia = system: CCRF-CEM leukemia
HCC-2998 colon = system: HCC-2998 colon
IGROV1 ovarian = system: IGROV1 ovarian
MALME-3M melanoma = system: MALME-3M melanoma
DMS 273 small cell lung = system: DMS 273 small cell lung
M19-MEL melanoma = system: M19-MEL melanoma
NCI-H460 lung = system: NCI-H460 lung
KM12 colon = system: KM12 colon
SF-539 CNS = system: SF-539 CNS
NCI-H522 lung = system: NCI-H522 lung
M14 melanoma = system: M14 melanoma
OVCAR-4 ovarian = system: OVCAR-4 ovarian
ACHN renal = system: ACHN renal
NCI-H226 lung = system: NCI-H226 lung
SN12C renal = system: SN12C renal
DLD-1 colon = system: DLD-1 colon
SNB-75 CNS = system: SNB-75 CNS
OVCAR-8 ovarian = system: OVCAR-8 ovarian
SK-OV-3 ovarian = system: SK-OV-3 ovarian
SNB-19 CNS = system: SNB-19 CNS
OVCAR-3 ovarian = system: OVCAR-3 ovarian
CAKI-1 renal = system: CAKI-1 renal
786-0 renal = system: 786-0 renal
HCT-116 colon = system: HCT-116 colon
UACC-257 melanoma = system: UACC-257 melanoma
UACC-62 melanoma = system: UACC-62 melanoma
XF 498 CNS = system: XF 498 CNS
NCI-H23 lung = system: NCI-H23 lung
HOP-62 NSCLC = system: HOP-62 NSCLC
MOLT-4 leukemia = system: MOLT-4 leukemia
HL-60(TB) leukemia = system: HL-60(TB) leukemia
SK-MEL-2 melanoma = system: SK-MEL-2 melanoma
LXFL 529 NSCLC = system: LXFL 529 NSCLC
K-562 leukemia = system: K-562 leukemia
COLO 205 colon = system: COLO 205 colon
HOP-18 NSCLC = system: HOP-18 NSCLC
DMS 114 small cell lung = system: DMS 114 small cell lung
HOP-92 NSCLC = system: HOP-92 NSCLC
SW-620 colon = system: SW-620 colon
SF-295 CNS = system: SF-295 CNS
A549 NSCLC = system: A549 NSCLC
KM20L2 colon = system: KM20L2 colon
SNB-78 CNS = system: SNB-78 CNS
EKVX NSCLC = system: EKVX NSCLC
RPMI-8226 leukemia = system: RPMI-8226 leukemia
TK-10 renal = system: TK-10 renal
SK-MEL-5 melanoma = system: SK-MEL-5 melanoma
SK-MEL-28 melanoma = system: SK-MEL-28 melanoma
HCT-15 colon = system: HCT-15 colon
U251 CNS = system: U251 CNS
UO-31 renal = system: UO-31 renal
HT29 colon = system: HT29 colon
A498 renal = system: A498 renal
SF-268 CNS = system: SF-268 CNS

CC12C(=O)N(CCN)C(=O)C1C1c3ccccc3C2c2ccccc21 (stereo not given)
TGI (OVCAR-5 ovarian): > 100 µM | TGI (CCRF-CEM leukemia): > 100 µM | TGI (HCC-2998 colon): > 100 µM | TGI (IGROV1 ovarian): > 100 µM | TGI (MALME-3M melanoma): > 100 µM | TGI (DMS 273 small cell lung): > 100 µM | TGI (M19-MEL melanoma): > 100 µM | TGI (NCI-H460 lung): > 100 µM | TGI (KM12 colon): > 100 µM | TGI (SF-539 CNS): > 100 µM | TGI (NCI-H522 lung): > 100 µM | TGI (M14 melanoma): > 100 µM | TGI (OVCAR-4 ovarian): > 100 µM | TGI (ACHN renal): > 100 µM | TGI (NCI-H226 lung): > 100 µM | TGI (SN12C renal): > 100 µM | TGI (DLD-1 colon): > 100 µM | TGI (SNB-75 CNS): > 100 µM | TGI (OVCAR-8 ovarian): > 100 µM | TGI (SK-OV-3 ovarian): > 100 µM | TGI (SNB-19 CNS): > 100 µM | TGI (OVCAR-3 ovarian): > 100 µM | TGI (CAKI-1 renal): > 100 µM | TGI (786-0 renal): > 100 µM | TGI (HCT-116 colon): > 100 µM | TGI (UACC-257 melanoma): > 100 µM | TGI (UACC-62 melanoma): > 100 µM | TGI (XF 498 CNS): > 100 µM | TGI (NCI-H23 lung): > 100 µM | TGI (HOP-62 NSCLC): > 100 µM | TGI (MOLT-4 leukemia): > 100 µM | TGI (HL-60(TB) leukemia): > 100 µM | TGI (SK-MEL-2 melanoma): > 100 µM | TGI (LXFL 529 NSCLC): > 100 µM | TGI (K-562 leukemia): > 100 µM | TGI (COLO 205 colon): > 100 µM | TGI (HOP-18 NSCLC): > 100 µM | TGI (DMS 114 small cell lung): > 100 µM | TGI (HOP-92 NSCLC): 98.4 µM | TGI (SW-620 colon): > 100 µM | TGI (SF-295 CNS): > 100 µM | TGI (A549 NSCLC): > 100 µM | TGI (KM20L2 colon): > 100 µM | TGI (SNB-78 CNS): > 100 µM | TGI (EKVX NSCLC): > 100 µM | TGI (RPMI-8226 leukemia): > 100 µM | TGI (TK-10 renal): > 100 µM | TGI (SK-MEL-5 melanoma): > 100 µM | TGI (SK-MEL-28 melanoma): > 100 µM | TGI (HCT-15 colon): > 100 µM | TGI (U251 CNS): > 100 µM | TGI (UO-31 renal): > 100 µM | TGI (HT29 colon): > 100 µM | TGI (A498 renal): > 100 µM | TGI (SF-268 CNS): > 100 µM
